From patent US9988400B2 (Genentech, Inc., priority 2013, dated 2018) come the findings set out here.

What is called EC50 is the concentration at which the effect is half-maximal.

For this assay, the target named is T1, HEK cells stably transfected with tetracycline inducible hNR1 and hNR2A (Homo sapiens, UniProt Q05586+Q12879).
T1 construct: expressed in transfected cells; host or cells: HEK cells, stably transfected, tetracycline/doxycycline inducible
In words: Assay 1: Cell-Based Assay, cytosolic calcium response to positive allosteric modulators (with 30 μM glycine and 300 nM L-glutamate, EC30). Particulars: Table 2; for EC50: cytosolic calcium response, with 30 μM glycine and 300 nM L-glutamate (EC30), — = no plateau was reached; for Max %: responses scaled relative to 100 μM L-glutamate maximal response (100%) and 0 μM L-glutamate (0%). The gist of the method:
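Cells induced 24 h with 7.5 μg mL^−1 doxycycline plus 500 μM (+)-ketamine, loaded 60 min at 37 °C with calcium dye in Mg-free HBSS (1.8 mM Ca, probenecid, 10 μM (+)-ketamine, pH 7.15). Peak RFU over 5 min after compound addition, scaled to 100 μM L-glutamate (100%) and 0 μM (0%); four-parameter Hill fit for EC50, max % if no plateau.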

T1 sequence (Q12879 23-1464, other chains not shown): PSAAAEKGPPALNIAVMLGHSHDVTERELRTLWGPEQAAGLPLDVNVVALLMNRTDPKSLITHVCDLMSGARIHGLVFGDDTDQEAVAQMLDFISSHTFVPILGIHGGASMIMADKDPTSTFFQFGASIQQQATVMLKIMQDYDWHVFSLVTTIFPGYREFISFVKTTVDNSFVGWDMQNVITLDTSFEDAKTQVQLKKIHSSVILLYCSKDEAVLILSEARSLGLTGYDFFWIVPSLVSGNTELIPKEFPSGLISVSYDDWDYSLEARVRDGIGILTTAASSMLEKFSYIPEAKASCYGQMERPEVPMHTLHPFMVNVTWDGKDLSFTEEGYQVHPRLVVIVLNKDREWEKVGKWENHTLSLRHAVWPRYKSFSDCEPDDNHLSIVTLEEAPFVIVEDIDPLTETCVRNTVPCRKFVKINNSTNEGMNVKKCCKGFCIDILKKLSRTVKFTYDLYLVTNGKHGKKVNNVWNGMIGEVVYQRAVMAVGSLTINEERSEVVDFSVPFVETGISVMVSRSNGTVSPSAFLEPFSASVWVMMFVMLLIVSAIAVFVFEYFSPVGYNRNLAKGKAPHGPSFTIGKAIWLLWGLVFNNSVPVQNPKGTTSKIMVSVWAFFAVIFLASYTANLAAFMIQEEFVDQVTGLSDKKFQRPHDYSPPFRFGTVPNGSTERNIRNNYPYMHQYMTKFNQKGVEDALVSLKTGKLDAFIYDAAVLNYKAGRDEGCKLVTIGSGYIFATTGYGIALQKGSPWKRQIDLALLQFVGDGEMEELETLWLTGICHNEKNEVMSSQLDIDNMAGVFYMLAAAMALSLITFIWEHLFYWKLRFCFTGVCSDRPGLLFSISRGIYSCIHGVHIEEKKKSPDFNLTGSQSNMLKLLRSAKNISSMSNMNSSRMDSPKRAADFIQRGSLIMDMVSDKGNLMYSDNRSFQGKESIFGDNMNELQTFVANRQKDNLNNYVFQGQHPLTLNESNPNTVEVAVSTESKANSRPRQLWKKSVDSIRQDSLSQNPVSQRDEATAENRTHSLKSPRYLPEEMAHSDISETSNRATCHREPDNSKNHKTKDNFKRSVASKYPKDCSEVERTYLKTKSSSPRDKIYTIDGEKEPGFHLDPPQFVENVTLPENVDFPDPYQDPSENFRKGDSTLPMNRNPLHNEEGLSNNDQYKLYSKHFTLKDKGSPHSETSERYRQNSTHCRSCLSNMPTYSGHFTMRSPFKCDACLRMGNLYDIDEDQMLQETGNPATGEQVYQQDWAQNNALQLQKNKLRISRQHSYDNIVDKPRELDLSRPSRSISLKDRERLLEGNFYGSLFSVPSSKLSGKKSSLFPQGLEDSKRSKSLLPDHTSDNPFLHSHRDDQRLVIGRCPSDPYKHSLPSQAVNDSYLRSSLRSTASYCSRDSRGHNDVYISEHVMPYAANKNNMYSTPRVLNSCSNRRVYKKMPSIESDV

As for `CCN(Cc1cc(=O)n2c3c(sc2n1)CCC3CCO)c1ccc(F)cc1` (centres unmarked) [Example 8.14, 6-[(N-ethyl-4-fluoro-anilino)methyl]-1-(2-hydroxyethyl)-2,3-dihydro-1H-cyclopenta[3,4]thiazolo[1,4-a]pyrimidin-8-one], the EC50 amounted to 1100 nM and the Max % was found to be 154%. Consider `CCN(Cc1cc(=O)n2c3c(sc2n1)CCC3COC)c1ccc(F)cc1` (centres unmarked) [Example 8.15, 2-((ethyl(4-fluorophenyl)amino)methyl)-6-(methoxymethyl)-7,8-dihydrocyclopenta[4,5]thiazolo[3,2-a]pyrimidin-4(6H)-one], for which the concentration giving a half-maximal response (EC50) was found to be 2300 nM and the Max % is reported as 138%. Regarding `CCN(Cc1cc(=O)n2c3c(sc2n1)CCC3CC(N)=O)c1ccc(F)cc1` (centres unmarked) [Example 8.16, 2-[6-[(N-ethyl-4-fluoro-anilino)methyl]-8-oxo-2,3-dihydro-1H-cyclopenta[3,4]thiazolo[1,4-a]pyrimidin-1-yl]acetamide], the EC50 stood at 13000 nM and the Max % is given as 137%.

With `CCN(Cc1cc(=O)n2c(C3CCCCC3)c(C)sc2n1)c1ccc(F)cc1` [Example 9.1, 3-cyclohexyl-7-[[ethyl(4-fluorophenyl)amino]methyl]-2-methyl-5H-[1,3]thiazolo[3,2-a]pyrimidin-5-one], the Max % was found to be 48.1%. On to `CCN(Cc1cc(=O)n2c(C(C)C)c(C)sc2n1)c1ccc(F)cc1` [Example 9.2, 7-[(N-ethyl-4-fluoro-anilino)methyl]-3-isopropyl-2-methyl-thiazolo[3,2-a]pyrimidin-5-one], for which the EC50 turned out to be 2900 nM and the Max % came out at 117%. As to `CCN(Cc1cc(=O)n2c(C3CCCC3)c(C)sc2n1)c1ccc(F)cc1` [Example 9.3, 3-cyclopentyl-7-[(N-ethyl-4-fluoro-anilino)methyl]-2-methyl-thiazolo[3,2-a]pyrimidin-5-one], the 50% effective concentration (EC50) is 7000 nM and the Max % is on record as 108%. On to `CCN(Cc1cc(=O)n2c(C3CCOCC3)c(C)sc2n1)c1ccc(F)cc1` [Example 9.4, 7-[(N-ethyl-4-fluoro-anilino)methyl]-2-methyl-3-tetrahydropyran-4-yl-thiazolo[3,2-a]pyrimidin-5-one], for which the EC50 worked out at 9200 nM and the Max % amounted to 114%. For `CCN(Cc1cc(=O)n2c(C3CCC3)c(C)sc2n1)c1ccc(F)cc1` [Example 10.1, 3-cyclobutyl-7-[(N-ethyl-4-fluoro-anilino)methyl]-2-methyl-thiazolo[3,2-a]pyrimidin-5-one] the same measures were 4400 nM and 130%.

`CCN(Cc1cc(=O)n2c(C(C)(C)C)c(C)sc2n1)c1ccc(F)cc1` [Example 10.2, 3-tert-butyl-7-[(N-ethyl-4-fluoro-anilino)methyl]-2-methyl-thiazolo[3,2-a]pyrimidin-5-one]: the concentration giving a half-maximal response (EC50) worked out at 5300 nM and the Max % is 110%. As to `CCN(Cc1cc(=O)n2c(C(C)=O)c(C)sc2n1)c1ccc(F)cc1` [Example 10.3, 3-acetyl-7-[[ethyl(4-fluorophenyl)amino]methyl]-2-methyl-5H-[1,3]thiazolo[3,2-a]pyrimidin-5-one], the EC50 was determined as 535 nM and the Max % is given as 177%. For `CCN(Cc1cc(=O)n2c(C(=O)NC)c(C)sc2n1)c1ccc(F)cc1` [Example 10.4, 7-[(N-ethyl-4-fluoro-anilino)methyl]-N,2-dimethyl-5-oxo-thiazolo[3,2-a]pyrimidine-3-carboxamide], in that order: 593 nM and 186%. For the molecule `CCN(Cc1cc(=O)n2c(C(C)(C)O)c(C)sc2n1)c1ccc(F)cc1` [Example 10.5, 7-[(N-ethyl-4-fluoro-anilino)methyl]-3-(1-hydroxy-1-methyl-ethyl)-2-methyl-thiazolo[3,2-a]pyrimidin-5-one], the EC50 amounted to 495 nM and the Max % was 158%. Regarding `CCN(Cc1cc(=O)n2c(C(C)O)c(C)sc2n1)c1ccc(F)cc1` (centres unmarked) [Example 10.6, 7-[(N-ethyl-4-fluoro-anilino)methyl]-3-(1-hydroxyethyl)-2-methyl-thiazolo[3,2-a]pyrimidin-5-one], the EC50 came to 548 nM and the Max % was found to be 176%.

With `CCN(Cc1cc(=O)n2c(CN(C)C)c(C)sc2n1)c1ccc(F)cc1` [Example 10.7, 3-[(dimethylamino)methyl]-7-[[ethyl(4-fluorophenyl)amino]methyl]-2-methyl-5H-[1,3]thiazolo[3,2-a]pyrimidin-5-one], the EC50 came out at 23400 nM and the Max % was 127%. For the molecule `CCN(Cc1cc(=O)n2c(CN3CCC3)c(C)sc2n1)c1ccc(F)cc1` [Example 10.8, 3-(azetidin-1-ylmethyl)-7-[(N-ethyl-4-fluoro-anilino)methyl]-2-methyl-thiazolo[3,2-a]pyrimidin-5-one], the Max % is 63.5%. In the case of `CCN(Cc1cc(=O)n2c(CN3CCCC3)c(C)sc2n1)c1ccc(F)cc1` [Example 10.9, 7-[(N-ethyl-4-fluoro-anilino)methyl]-2-methyl-3-(pyrrolidin-1-ylmethyl)thiazolo[3,2-a]pyrimidin-5-one], the Max % came out at 72.1%. As for `CCN(Cc1cc(=O)n2c(CN3CC(O)C3)c(C)sc2n1)c1ccc(F)cc1` [Example 10.10, 7-[(N-ethyl-4-fluoro-anilino)methyl]-3-[(3-hydroxyazetidin-1-yl)methyl]-2-methyl-thiazolo[3,2-a]pyrimidin-5-one], the EC50 came to 18800 nM and the Max % is on record as 132%. As to `CCN(Cc1cc(=O)n2c(C(O)C(F)(F)F)c(C)sc2n1)c1ccc(F)cc1` (centres unmarked) [Example 10.11, 7-[(N-ethyl-4-fluoro-anilino)methyl]-2-methyl-3-(2,2,2-trifluoro-1-hydroxy-ethyl)thiazolo[3,2-a]pyrimidin-5-one], the EC50 came out at 1200 nM and the Max % came out at 167%. `CCN(Cc1cc(=O)n2c(CO)c(C)sc2n1)c1ccc(F)cc1` [Example 10.12, 7-((ethyl(4-fluorophenyl)amino)methyl)-3-(hydroxymethyl)-2-methyl-5H-thiazolo[3,2-a]pyrimidin-5-one]: the EC50 was 2100 nM and the Max % is 149%.

In the case of `CCN(Cc1cc(=O)n2c(COC)c(C)sc2n1)c1ccc(F)cc1` [Example 10.13, 7-[[ethyl(4-fluorophenyl)amino]methyl]-3-(methoxymethyl)-2-methyl-5H-[1,3]thiazolo[3,2-a]pyrimidin-5-one], the EC50 was 345 nM and the Max % is listed as 165%. Consider `CCN(Cc1cc(=O)n2c(Cn3cccn3)c(C)sc2n1)c1ccc(F)cc1` [Example 10.14, 7-[[Ethyl(4-fluorophenyl)amino]methyl]-2-methyl-3-(1H-pyrazol-1-ylmethyl)-5H-[1,3]thiazolo[3,2-a]pyrimidin-5-one], for which the EC50 turned out to be 1500 nM and the Max % came to 172%. Take `CCN(Cc1cc(=O)n2c(CS(C)(=O)=O)c(C)sc2n1)c1ccc(F)cc1` [Example 10.15, 7-[(N-ethyl-4-fluoro-anilino)methyl]-2-methyl-3-(methylsulfonylmethyl)thiazolo[3,2-a]pyrimidin-5-one]: the EC50 was determined as 1300 nM and the Max % was determined as 156%.

In the case of `CCOCc1c(C)sc2nc(CN(CC)c3ccc(F)cc3)cc(=O)n12` [Example 10.16, 3-(ethoxymethyl)-7-[(N-ethyl-4-fluoro-anilino)methyl]-2-methyl-thiazolo[3,2-a]pyrimidin-5-one], the EC50 is 2700 nM and the Max % is 147%. For `CCN(Cc1cc(=O)n2c(CC#N)c(C)sc2n1)c1ccc(F)cc1` [Example 10.17, 2-[7-[(N-ethyl-4-fluoro-anilino)methyl]-2-methyl-5-oxo-thiazolo[3,2-a]pyrimidin-3-yl]acetonitrile], in that order: 1200 nM and 174%. On to `CCN(Cc1cc(=O)n2c(C(C)(C)C)csc2n1)c1ccc(F)cc1` [Example 10.18, 3-tert-butyl-7-[(N-ethyl-4-fluoro-anilino)methyl]thiazolo[3,2-a]pyrimidin-5-one], for which the EC50 worked out at 16900 nM and the Max % was determined as 88.2%. On to `CCN(Cc1cc(=O)n2c(C(C)(C)O)csc2n1)c1ccc(F)cc1` [Example 10.19, 7-[(N-ethyl-4-fluoro-anilino)methyl]-3-(1-hydroxy-1-methyl-ethyl)thiazolo[3,2-a]pyrimidin-5-one], for which the EC50 turned out to be 837 nM and the Max % came to 165%. On to `CCN(Cc1cc(=O)n2c(C(C)O)csc2n1)c1ccc(F)cc1` (centres unmarked) [Example 10.20, 7-[(N-ethyl-4-fluoro-anilino)methyl]-3-(1-hydroxyethyl)thiazolo[3,2-a]pyrimidin-5-one], for which the EC50 is 2200 nM and the Max % amounted to 178%. Regarding `CCN(Cc1cc(=O)n2c(CN3CCC34COC4)c(C)sc2n1)c1ccc(F)cc1` [Example 10.21, 7-[(N-ethyl-4-fluoro-anilino)methyl]-2-methyl-3-(6-oxa-1-azaspiro[3.3]heptan-1-ylmethyl)thiazolo[3,2-a]pyrimidin-5-one], the Max % came out at 117%. As to `CCN(Cc1cc(=O)n2c(CNCCO)c(C)sc2n1)c1ccc(F)cc1` [Example 10.22, 7-[(N-ethyl-4-fluoro-anilino)methyl]-3-[(2-hydroxyethylamino)methyl]-2-methyl-thiazolo[3,2-a]pyrimidin-5-one], the EC50 turned out to be 7500 nM and the Max % is reported as 156%. Turning to `CCN(Cc1cc(=O)n2c(CO)c(C)sc2n1)c1cccc(C#N)c1` [Example 10.23, 3-(ethyl((3-(hydroxymethyl)-2-methyl-5-oxo-5H-thiazolo[3,2-a]pyrimidin-7-yl)methyl)amino)benzonitrile], the EC50 was determined as 22900 nM and the Max % was determined as 169%.
